Values quoted from earlier work in paper PMC9026741 (Bioorganic chemistry, 2020).

Target: T1, Nrp1 (Homo sapiens, UniProt O14786)
T1 sequence (O14786 274-586): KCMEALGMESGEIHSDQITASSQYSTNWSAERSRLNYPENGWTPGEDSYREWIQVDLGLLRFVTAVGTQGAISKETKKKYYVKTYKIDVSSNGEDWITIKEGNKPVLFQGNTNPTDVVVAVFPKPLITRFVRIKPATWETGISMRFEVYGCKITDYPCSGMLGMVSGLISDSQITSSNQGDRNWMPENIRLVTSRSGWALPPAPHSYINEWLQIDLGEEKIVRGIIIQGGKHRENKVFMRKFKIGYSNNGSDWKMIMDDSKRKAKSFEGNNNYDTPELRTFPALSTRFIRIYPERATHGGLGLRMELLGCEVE
Settings: Nrp1 over Nrp2

Substance: ATWLPPR
- preference for Nrp1: two-fold preference for Nrp1
